According to article PMC9492542, “Brain-restricted mTOR inhibition with binary pharmacology” (Nature, 2022):
Values joined by “and” are separate entries in the source; they are usually repeats but may differ in a detail not shown here. Equal values may be shown once. Read-outs that look alike come from different tables or passages of the source.

Tests used:
[1] = tested on: K562 CRISPRi cells; test: Cellular dye (TAMRA) retention assay by flow cytometry; type: cell-based
Method: Untransduced (no virus or sgRNA^–) and sgRNA expression vector-transduced (sgRNA^+) K562 CRISPRi cells were mixed in a 1:1 ratio, plated in 48-well plates and incubated overnight. Cell mixtures were treated with the indicated TAMRA-linked compounds (300 μl final volume) and incubated for 24 h. Plates were placed over ice and 200 μl of each compound–cell mixture was transferred to a 96-well U-bottom plate. Cells were pelleted at 500g for 5 min and subsequently washed 2× with ice-cold FACS buffer (PBS + 1% BSA + 0.1% NaN3). Cells were resuspended in 200 μl of ice-cold FACS buffer and assessed using an Attune NxT (Thermo Fisher Scientific). Relative uptake of TAMRA-linked compounds was determined by comparing TAMRA fluorescence (561-nm excitation laser and 585/16-nm emission filter) between sgRNA^– and sgRNA^+ cells within each well.

[2] = tested on: mTOR; test: Immunoblot analysis of mTOR signalling (p-S6, p-4EBP1) in MCF7 cells, incl. screen for blocking of rapamycin/RapaLink-1
[3] = tested on: mTOR; test: mTOR signalling in mouse whole brain and skeletal muscle after single i.p. dose (immunoblot, insulin stimulated); type: in vivo; conditions: for p-4EBP1 Brain, fold relative to no insulin, normalized to GAPDH / p-4EBP1 Muscle, fold relative to no insulin, normalized to GAPDH / p-RPS6 Brain, fold relative to no insulin, normalized to GAPDH / p-RPS6 Muscle, fold relative to no insulin, normalized to GAPDH: RL1 1 mg/kg, RB 40 mg/kg, insulin 250 mU, listed as RB
Method: Whole brain and skeletal muscle were analyzed by immunoblot.

[4] = tested on: GBM43; test: Orthotopic intracranial GBM43-luciferase patient-derived glioblastoma xenograft; conditions: GBM43-Luc
[5] = tested on: NFAT; test: NFAT activation assay (Jurkat-Lucia NFAT luciferase reporter, PMA/ionomycin); type: cell-based
Method: Jurkat-Lucia NFAT cells were resuspended to 2 × 10^6 cells per ml in fresh growth medium and dispensed in 96-well tissue culture plates (Corning 3904; 180 µl per well). DMSO solutions of test compounds at 100× the test concentrations were added and the cells were incubated for 4 h at 37 °C. A 10× stimulation solution containing phorbol myristate acetate (100 ng ml^–1) and ionomycin (10 µg ml^–1) were added to each well (20 µl per well) except for the negative control wells, which were supplemented with 20 µl medium. Cells were incubated at 37 °C for 12 h. Cells (20 µl per well) were transferred into a white opaque 96-well plate (Corning 3912). TECAN Spark 20M plate reader equipped with an auto-injection system was primed with Lucia luciferase substrate solution and set with the following parameters: 50 µl of injection volume, end-point measurement with a 4-s delay time and 0.1-s integration time. Luciferase activity was measured with the settings above and normalized to DMSO-treated, stimulated cells. Data were plotted in GraphPad Prism 9.0.

[6] = tested on: human PBMCs; test: Proliferation of anti-CD3/anti-CD28 stimulated PBMCs (120 h); type: cell-based
[7] = molecular target: T1, FKBP12 (Homo sapiens, UniProt P62942); test: Competition fluorescence polarization assay with FITC-rapamycin tracer; type: binding
T1 construct: His-tag (HRV 3C cleavable) (cleaved yes); made in house; host or cells: Escherichia coli BL21(DE3)
T1 sequence (P62942 whole entry): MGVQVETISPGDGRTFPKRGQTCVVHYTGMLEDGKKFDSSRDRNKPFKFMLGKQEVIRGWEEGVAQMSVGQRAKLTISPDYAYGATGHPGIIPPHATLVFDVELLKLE
Method: Compound binding affinity was determined using a competition fluorescence polarization assay. […] The assay buffer was 20 mM HEPES pH 7.5 and 0.01% Triton X-100. […] Data were fitted to a three-parameter sigmoidal curve to derive IC50 values. Ki of the compounds were calculated using a tool provided by S. Wang’s laboratory (http://www.umich.edu/~shaomengwanglab/software/calc_ki/index.html). Data were plotted in GraphPad Prism 9.0.

[8] = tested on: U87MG; test: Orthotopic intracranial U87MG-luciferase glioblastoma xenograft
[9] = U87MG-Luc, day 0, individual mice
[10] = U87MG-Luc, day 5, individual mice
[11] = U87MG-Luc, day 10, individual mice
[12] = U87MG-Luc, day 15, individual mice
[13] = U87MG-Luc, day 20, individual mice

CO[C@H]1C[C@@H](C)C/C(C)=C/[C@@H](CCCC(=O)N2CCN(C(=O)c3ccc(C(=O)[O-])c(-c4c5ccc(=[N+](C)C)cc-5oc5cc(N(C)C)ccc45)c3)CC2)C(=O)C[C@H](O)[C@@H](C)[C@@H](/C(C)=C/[C@@H]2CC[C@@H](O)[C@H](OC)C2)OC(=O)[C@@H]2CCCCN2C(=O)C(=O)[C@]2(O)O[C@H]1[C@@H](OC)C[C@H]2C [FK-TAMRA]
Median TAMRA signal, fold change sgRNA+/sgRNA- ([1]; FKBP12 sg1, 1 nM compound): 0.94 ×
Median TAMRA signal, fold change sgRNA+/sgRNA- ([1]; FKBP12 sg1, 100 nM compound): 0.17 ×
Median TAMRA signal, fold change sgRNA+/sgRNA- ([1]; FKBP12 sg2, 1 nM compound): 0.95 ×
Median TAMRA signal, fold change sgRNA+/sgRNA- ([1]; FKBP12 sg2, 100 nM compound): 0.23 ×
Median TAMRA signal, fold change sgRNA+/sgRNA- ([1]; NegCtrl sg, 1 nM compound): 1.00 ×
Median TAMRA signal, fold change sgRNA+/sgRNA- ([1]; NegCtrl sg, 100 nM compound): 1.00 ×

CO[C@H]1C[C@@H](C)C/C(C)=C/[C@@H](CCCc2cccc[n+]2[O-])C(=O)C[C@H](O)[C@@H](C)[C@@H](/C(C)=C/[C@@H]2CC[C@@H](O)[C@H](OC)C2)OC(=O)[C@@H]2CCCCN2C(=O)C(=O)[C@]2(O)O[C@H]1[C@@H](OC)C[C@H]2C [RapaBlock]
blocking of rapamycin (phospho-S6 signal) ([2]; MCF7, 100:1 stoichiometry RapaBlock:rapamycin): restoring the phospho-S6 signal to the same level as untreated cells
attenuation of RapaLink-1 effects on mTOR signalling ([2]; MCF7, 4 h, with 10 nM RapaLink-1): attenuates the pharmacological effects of RapaLink-1 in a dose-dependent manner
effect on mTOR signalling by itself ([2]; cultured cells, up to 10 µM): does not affect mTOR signalling by itself
p-4EBP1 Brain, fold relative to no insulin, normalized to GAPDH ([3]; 4h): 1.83 and 2 and 1.39
p-4EBP1 Muscle, fold relative to no insulin, normalized to GAPDH ([3]; 4h): 1.7 and 2.09 and 1.93
p-RPS6 Brain, fold relative to no insulin, normalized to GAPDH ([3]; 4h): 1.92 and 2.13 and 3
p-RPS6 Muscle, fold relative to no insulin, normalized to GAPDH ([3]; 4h): 2.39 and 2.47 and 2.32
p-4EBP1 Brain, fold relative to no insulin, normalized to GAPDH ([3]; 24h): 1.46 and 1.83 and 1.26
p-4EBP1 Muscle, fold relative to no insulin, normalized to GAPDH ([3]; 24h): 2.04 and 2.08 and 2.19
p-RPS6 Brain, fold relative to no insulin, normalized to GAPDH ([3]; 24h): 1.78 and 1.76 and 3.3
p-RPS6 Muscle, fold relative to no insulin, normalized to GAPDH ([3]; 24h): 3.51 and 2.13 and 2.07
tissue-specific protection from RapaLink-1 (in vivo screen) ([3]; RapaLink-1 1 mg per kg + candidate 40 mg per kg): protected peripheral tissues from RapaLink-1 but allowed potent inhibition of mTOR in the brain
Mouse weight ([4]; day 0, individual mice): 22.5 g and 18.4 g and 23.4 g and 24.1 g and 22.4 g and 24.3 g
Tumor size (measured by bioluminescence) ([4]; day 0, individual mice): 545000 and 240000 and 88600 and 6780000 and 3240000 and 1560000
Mouse weight ([4]; day 4, individual mice): 22.5 g and 20 g and 24 g and 25.1 g and 23.3 g and 25 g
Tumor size (measured by bioluminescence) ([4]; day 4, individual mice): 550000 and 781000 and 188000 and 20000000 and 920000 and 2990000
Mouse weight ([4]; day 7, individual mice): 22 g and 20 g and 25 g (2×) and 23.4 g and 25.8 g
Tumor size (measured by bioluminescence) ([4]; day 7, individual mice): 42300000 and 19300000 and 2230000 and 1130000000 and 47100000 and 178000000
Mouse weight ([4]; day 10, individual mice): 21.7 g and 19.6 g and 24.5 g and 24.8 g (2×) and 22.7 g
Tumor size (measured by bioluminescence) ([4]; day 10, individual mice): 782000000 and 3210000 and 104000000 and 3810000000 and 1590000000 and 1220000000
Mouse survival ([4]; individual mice): 16 days and 17 days and 18 days
NFAT luciferase activity, normalized to DMSO-treated stimulated cells ([5]; 0.00512 nM): 93 and 91.3 and 97
NFAT luciferase activity, normalized to DMSO-treated stimulated cells ([5]; 0.0256 nM): 97.8 and 104.3 and 98.9
NFAT luciferase activity, normalized to DMSO-treated stimulated cells ([5]; 0.128 nM): 95.3 and 89 and 97
NFAT luciferase activity, normalized to DMSO-treated stimulated cells ([5]; 0.64 nM): 97.6 and 92.3 and 99.2
NFAT luciferase activity, normalized to DMSO-treated stimulated cells ([5]; 16 nM): 100.2 and 101.6 and 105.7
NFAT luciferase activity, normalized to DMSO-treated stimulated cells ([5]; 80 nM): 104.1 and 109.3 and 105.3
NFAT luciferase activity, normalized to DMSO-treated stimulated cells ([5]; 400 nM): 109.4 and 107.4 and 106.7
NFAT luciferase activity, normalized to DMSO-treated stimulated cells ([5]; 2000 nM): 112.3 and 110 and 113.9
NFAT luciferase activity, normalized to DMSO-treated stimulated cells ([5]; 10000 nM): 112 and 113.2 and 110.3
inhibitory activity for calcineurin ([5]; Fig. 2e): does not exhibit any inhibitory activity for calcineurin
IC50 ([5]; Homo sapiens, Jurkat NFAT luciferase, PMA + ionomycin): > 10000 nM
shift of RapaLink-1 IC50 for PBMC proliferation by addition of RapaBlock ([6]; 5 days): more than 100 fold
protection of PBMCs from rapamycin-mediated growth inhibition ([6]; compared with protection from RapaLink-1): appeared more effective at protecting PBMCs from rapamycin-mediated growth inhibition
relative proliferation compared to DMSO-treated cells ([6]; constant 10 µM RapaBlock, low RapaLink-1/rapamycin concentrations): ~ 100%
fluorescence polarization (competition, raw) ([7]; 0.0976562 nM compound): 114 and 112
fluorescence polarization (competition, raw) ([7]; 0.195312 nM compound): 114 and 112
fluorescence polarization (competition, raw) ([7]; 0.390625 nM compound): 112 and 110
fluorescence polarization (competition, raw) ([7]; 0.78125 nM compound): 110 and 109
fluorescence polarization (competition, raw) ([7]; 1.5625 nM compound): 109
fluorescence polarization (competition, raw) ([7]; 3.125 nM compound): 100 and 104
fluorescence polarization (competition, raw) ([7]; 6.25 nM compound): 86 and 88
fluorescence polarization (competition, raw) ([7]; 12.5 nM compound): 74
fluorescence polarization (competition, raw) ([7]; 25 nM compound): 64 and 62
fluorescence polarization (competition, raw) ([7]; 50 nM compound): 56 and 58
fluorescence polarization (competition, raw) ([7]; 100 nM compound): 46 and 55
Ki ([7]; Extended Data Fig. 4b, n = 3, read-out: Ki(FKBP12)): 1.4 nM
Ki ([7]; Fig. 2d, fluorescein-labelled rapamycin tracer, read-out: FKBP12 Ki): 3.1 nM
Kd ([7]; measured in-house in a single fluorescence polarization experiment, read-out: Kd3 (RapaBlock binding to FKBP)): 2.5 nM
Kd ([7]; recombinant FKBP12, Extended Data Fig. 2, read-out: Kd (FKBP12)): 1.6 nM
tumour growth and survival ([8]; RapaLink-1 1 mg per kg, RapaBlock 40 mg per kg, i.p. every 5 days): no significant effect on either
Mouse weight [8, 9]: 23.7 g and 18.4 g and 20.5 g and 22.9 g and 23.2 g and 19.4 g
Tumor size (measured by bioluminescence) [8, 9]: 17700000 and 2260000 and 10400000 and 10700000 and 2010000 and 11600000
Mouse weight [8, 10]: 25.1 g and 20.4 g and 22.3 g and 25.2 g and 24.1 g and 21.1 g
Tumor size (measured by bioluminescence) [8, 10]: 43100000 and 13000000 and 366000 and 28000000 and 11500000 and 3180000
Mouse weight [8, 11]: 24.6 g and 21.1 g and 22.5 g and 25.3 g and 23.8 g and 21.3 g
Tumor size (measured by bioluminescence) [8, 11]: 1970000 and 19800000 and 27300000 and 73500000 and 25400000 and 8750000
Mouse weight [8, 12]: 24.4 g and 21.8 g and 23 g (2×) and 25 g and 21.9 g
Tumor size (measured by bioluminescence) [8, 12]: 1140000000 and 112000000 and 171000000 and 820000000 and 161000000 and 1140000
Mouse weight [8, 13]: 19.5 g and 24.1 g and 23.9 g and 23.1 g
Tumor size (measured by bioluminescence) [8, 13]: 6750000000 and 1500000000 and 1360000000 and 47000000 and 739000000
Mouse survival ([8]; U87MG-Luc, individual mice): 25 days and 21 days and 28 days and 23 days

CO[C@H]1C[C@@H]2CC[C@@H](C)[C@@](O)(O2)C(=O)C(=O)N2CCCC[C@H]2C(=O)O[C@H]([C@H](C)C[C@@H]2CC[C@@H](OCCOCc3cn(CCOCCOCCOCCOCCOCCOCCOCCOCCNC(=O)c4ccc(C(=O)[O-])c(-c5c6ccc(=[N+](C)C)cc-6oc6cc(N(C)C)ccc56)c4)nn3)[C@H](OC)C2)CC(=O)[C@H](C)/C=C(\C)[C@@H](O)[C@@H](OC)C(=O)[C@H](C)C[C@H](C)/C=C/C=C/C=C/1C [RapaTAMRA]
cellular retention (median fluorescence intensity) ([1]; after extensive washout): tenfold increase in median fluorescence intensity
